In US8236820B2, “Anti-inflammatory compounds and uses thereof” (priority 2007, dated 2012):

Key:
[1] = system: MDA-MB 231 human breast cancer cells; experiment: Cell proliferation assay (BrdU incorporation) in MDA-MB231; assay type: cell-based; details: MDA-MB231, each compound at its IC50 concentration
Excerpt: Cell proliferation assay: To determine cell proliferation, we measured the incorporation of 5-bromo-2′-deoxyuridine (BrdU) into newly synthesized cellular DNA, following the manufacture's instructions (BD Biosciences, San Jose, Calif.).
As summarized in Table 2 below, in MDA-MB231 cells, all six compounds, each used at its IC50 concentration, a) inhibited cell proliferation between 6% and 50% compared to controls; b) induced both early and late apoptosis, as well as necrosis; and c) inhibited the G1 to S cell cycle phase transition. In this Table, the values for proliferation are the percentage of the corresponding control values. Those for apoptosis and necrosis refer to the percentage of cells in each category with respect to the entire cell population, and are to be compared to the control (vehicle only-treated) cells (uppermost row).

[2] = system: HT-29 cells; experiment: Cell cycle analysis, DFMO and phospho-sulindac I, 48 h; assay type: cell-based, human; details: DFMO 5 mM, phospho-sulindac I 40 μM
Procedure: A—Left panel: Cell viability was determined in HT-29 (full bars) and SW-480 (empty bars) cells after 48 h of incubation with 5 mM DFMO, 40 μM phospho-sulindac (P-S) or simultaneous combination of DFMO and P-S. Data are expressed as percentage of control cells (cells incubated only with DMSO). […] Right panel: In this isobologram the additivity line connects the IC50 value of each compound used alone. A and B represent two different dose pairs of each compound (their respective concentrations are shown in parentheses). The location of both A and B below the additivity line signifies synergy. […] DNA content was determined from propidium iodide (PI) fluorescence. C—Apoptosis and necrosis were determined by combined staining with annexin V and PI and determining fluorescence intensity. The percentages of apoptotic cells were determined using the dual staining with annexin V and propidium iodide and are indicated in each quadrant: left bottom quadrant, viable cells (annexin V-negative/PI-negative); right bottom quadrant, early apoptotic cells (annexin V-positive/PI-negative); right upper quadrant, late apoptotic cells (annexin V-positive/PI-positive); left upper quadrant, necrotic cells (annexin V-negative, PI-positive). […]

[3] = system: spermidine/spermine N^1-acetyltransferase (SSAT); experiment: SSAT enzymatic activity in SW480 cells; assay type: cell-based, human
Procedure: SW480 cells were incubated without or with phospho-sulindac I (P-S) for up to 24 h and SSAT activity was determined at each time point by determining the amount of labelled N1-acetylspermidine synthesized from [^14C]acetyl-CoA and unlabeled spermidine.
The effect of phospho-sulindac I on polyamines is mediated, at least in part, by activation of SSAT by phospho-sulindac I. It is known that conventional sulindac induces SSAT activity (Babbar et al., Cyclooxygenase-independent induction of apoptosis by sulindac sulfone is mediated by polyamines in colon cancer. J Biol Chem 2003; 278(48):47762-75.). Incubation of HT-29 and SW480 cells with 85 μM phospho-sulindac I for 24 h leads to a 3- and 4.4-fold increase of SSAT activity (P<0.05 versus control), respectively. On the other hand, incubation with sulindac led to a 1.5 and 2.5-fold increase of SSAT activity (P<0.05 versus control) in HT-29 and SW480 cells, respectively.

[4] = assay type: in vivo; details: 5 days oral gavage
Procedure: Phospho-sulindac I lacked gastrointestinal toxicity in mice; gastrointestinal toxicity is the major side effect of sulindac as well as of the entire class of NSAIDs. We evaluated in mice the potential toxicity of phospho-sulindac I. Three groups, each consisting of 8 female C57BL/6J+/+mice 6 wks of age, were treated for 5 days by oral gavage with equimolar amounts of phospho-sulindac I (317 mg/kg/d) or conventional sulindac (200 mg/kg/day) or vehicle. Mice were weighed at time 0 and on days 3 and 5. Mice surviving to the end of the study were euthanized and necropsied.
The stomachs of sulindac-treated animals were larger than those of the other two groups and in some the liver appeared hyperemic.

Compound: CCOP(=O)(OCC)OCCCCOC(=O)CC1=C(C)/C(=C/c2ccc([S+](C)[O-])cc2)c2ccc(F)cc21 (stereo not shown) [Phospho-sulindac I]
- Proliferation (% control) [1]: 52 % control
- G1 population arrest [2]: 75%
- S phase [2]: 13.6%
- induction of SSAT compared to vehicle-treated controls ([3]; SW480, 85 μM, 12 h of incubation): 4 fold
- maximum increase of SSAT ([3]; SW480, 85 μM, 18 h of incubation): 5.5 fold
- increase of SSAT activity ([3]; SW480, 24 h, phospho-sulindac I 85 μM, P<0.05 versus control): 4.4 fold
- inspection of the heart, lungs, spleen, kidneys and liver ([4]; 317 mg/kg/d): no abnormalities
- gastrointestinal or other toxicity (necropsy) ([4]; phospho-sulindac I 317 mg/kg/d, sulindac 200 mg/kg/day): no evidence of gastrointestinal or other toxicity
- mortality ([4]; phospho-sulindac I 317 mg/kg/d, sulindac 200 mg/kg/day, 8 mice/group): 0%
- body weight at end of study ([4]; phospho-sulindac I 317 mg/kg/d, sulindac 200 mg/kg/day, start 16.3±1.2, mean±SD): 15.7 ± 1.2 g
